ChEMBL document CHEMBL1126610, “Amidinium cation as a mimic of allylic carbocation: synthesis and squalene synthetase inhibitory activity of an amidinium analog of a carbocation intermediate” (J Med Chem, 1993)

Experiments:
Squalene synthase [1] = biological target: T1, Squalene synthase (Rattus norvegicus, UniProt Q02769); experiment: Inhibitory activity against squalene synthetase in the presence of inorganic pyrophosphate in rat liver microsomal assay; format: microsomes
T1 sequence (Q02769 whole entry): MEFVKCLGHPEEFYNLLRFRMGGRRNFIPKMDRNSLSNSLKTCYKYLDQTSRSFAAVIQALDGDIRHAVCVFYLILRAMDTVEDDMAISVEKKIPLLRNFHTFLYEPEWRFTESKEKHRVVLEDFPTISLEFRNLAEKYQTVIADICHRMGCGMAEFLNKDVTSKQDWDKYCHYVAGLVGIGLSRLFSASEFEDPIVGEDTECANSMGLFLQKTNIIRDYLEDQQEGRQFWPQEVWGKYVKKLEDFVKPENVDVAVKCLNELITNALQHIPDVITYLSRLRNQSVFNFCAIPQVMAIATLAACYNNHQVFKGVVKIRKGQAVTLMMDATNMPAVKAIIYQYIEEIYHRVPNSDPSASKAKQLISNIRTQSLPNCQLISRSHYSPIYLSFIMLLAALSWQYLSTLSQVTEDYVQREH

Squalene synthase [2] = biological target: T1, Squalene synthase; experiment: Inhibitory activity against squalene synthetase in rat liver microsomal assay; format: microsomes

IC50 (Squalene synthase [1]): 0.1 µM | IC50 (Squalene synthase [2]): 6.9 µM
Structure (SMILES): CC(C)=CCC/C(C)=C/CC/C(C)=C/C/N=C/N(C)CC/C=C(\C)CCC=C(C)C
